Measurements reported in patent publication US4261885A, “Novel somatostatin analogue” (Shiraimatsu Shingaku Co., Ltd., priority 1978, dated 1981).
Peptide text beside a SMILES is read from it.

Assays:
blood insulin levels = experiment: Arginine-induced changes in blood insulin in rats (radioimmunoassay); type: in vivo, rat
Experimental: (§1) Studies were made of the effects of the compound of this invention on arginine-induced changes in blood glucose, insulin and glucagon levels and the results obtained were compared with those of somatostatin.
(§2) Male SD rats weighing 300 to 500 g were anesthetized with sodium pentobarbital (60 mg/kg of body weight, by intraabdominal puncture) and polyethylene catheters were placed in their carotid artery. Saline was infused over 10 minutes, and arginine was infused at a rate of 3 g/kg/hr, for 60 minutes, using an infusion pump (at a rate of 4.5 ml/kg/hr). For 30 minutes, immediately after the start of arginine infusion, somatostatin or the compound of this invention was infused at rates of 4 μg/kg/hr, as a basal dose, 40 μg/kg/hr as 10 times as the basal dose, and 400 μg/kg/hr, as 100 times as the basal dose, respectively.
(§3) Before and 15 minutes, 30 minutes and 60 minutes after the start of arginine infusion, blood samples were taken in the presence of heparine. Blood glucose values were measured by the glucose oxidase method, and blood insulin and glucagon values were measured by the radioimmunoassay method.

blood glucose levels = experiment: Arginine-induced changes in blood glucose in rats (glucose oxidase method); type: in vivo, rat
Experimental: as §1, §2, §3

blood glucagon levels = experiment: Arginine-induced changes in blood glucagon in rats (radioimmunoassay); type: in vivo, rat
Experimental: as §1, §2, §3

Solubility in water = type: physicochemical
mouse = experiment: Acute toxicity, infusion into the tail vein of a test mouse; type: in vivo
Experimental: The experiment for determining acute toxicity is carried out by infusing this compound into the tail vein of a test mouse in the amount of 5 mg/kg of body weight.

[1] = Stability in pharmaceutical preparations; type: physicochemical; conditions: when used in pharmaceutical preparations
[2] = rats, arginine 3 g/kg/hr, substance infused for 30 minutes

| SMILES | effect after the suspension of infusion (blood insulin levels; 15 minutes after the suspension of infusion, conclusion on insulin and glucagon) | effect on blood insulin level after suspension of infusion (blood insulin levels; 45 minutes after start of arginine infusion = 15 minutes after suspension of substance infusion) | rise in blood insulin levels versus control (blood insulin levels; at more than 10 times the basal dose, 15 minutes after start of arginine infusion) | rise in blood insulin levels versus control (blood insulin levels; at more than 100 times the basal dose, 30 minutes after start of arginine infusion) | rise in blood insulin levels (insulin secretion) enhanced by arginine (blood insulin levels; [2]) | blood glucose level versus control (blood glucose levels; at 100 times the basal dose (basal 4 μg/kg/hr), 30 minutes after start of arginine infusion) | blood glucose level versus control (blood glucose levels; at more than 10 times the basal dose (basal 4 μg/kg/hr), 15 minutes after start of arginine infusion) | rise in blood glucose levels induced by arginine (blood glucose levels; [2]) | effect on blood glucagon level (blood glucagon levels; 45 minutes after start of arginine infusion) | blood glucagon level versus control (blood glucagon levels; at more than 10 times the basal dose, 15 minutes and 30 minutes after start of arginine infusion) | solubility in water (Solubility in water) | changes or side effects in respect of body weight, body temperature and blood sugar value (mouse; tail vein infusion, 5 mg/kg of body weight) | acute toxicity (mouse; tail vein, concluded from the 5 mg/kg experiment) | stability compared with somatostatin [1] |
| --- | --- | --- | --- | --- | --- | --- | --- | --- | --- | --- | --- | --- | --- | --- |
| C[C@H](N)C(=O)NCC(=O)N[C@H]1CSSC[C@@H](C(=O)O)NC(=O)[C@H](CO)NC(=O)[C@H]([C@@H](C)O)NC(=O)[C@H](Cc2ccccc2)NC(=O)[C@H]([C@@H](C)O)NC(=O)[C@H](CCCCN)NC(=O)[C@H](Cc2c[nH]c3ccccc23)NC(=O)[C@H](Cc2ccccc2)NC(=O)[C@H](Cc2ccccc2)NC(=O)[C@H](CC(N)=O)NC(=O)[C@H](CCCCN)NC1=O [somatostatin] | its effect was no longer observed | failed to exert its effect | significantly inhibited | significantly inhibited | inhibited the rise in blood insulin levels dose dependently | Statistically significant low levels of blood glucose | Statistically significant low levels of blood glucose | inhibited | lost its effect | significantly lowered its level |  |  |  |  |
| C[C@@H](O)[C@@H]1NC(=O)[C@H](CCCCN)NC(=O)[C@@H](Cc2c[nH]c3ccccc23)NC(=O)[C@H](Cc2ccccc2)NC(=O)[C@H](Cc2ccccc2)NC(=O)[C@H](CC(N)=O)NC(=O)[C@H](CCCCN)NC(=O)CCCCC[C@H](C(=O)O)NC(=O)[C@H](CO)NC(=O)[C@H]([C@@H](C)O)NC(=O)[C@H](Cc2ccccc2)NC1=O [the compound of this invention, Des-(Ala^1,Gly^2)-(D-Trp^8,D-Asu^3,14)-somatostatin] (HELM PEPTIDE1{K.N.F.F.[dW].K.T.F.T.S.[O=C(O)[C@@H](CCCCCC(=O)[*:3])N[*:1]]}$PEPTIDE1,PEPTIDE1,1:R1-11:R3$$$V2.0) |  |  |  |  |  |  |  |  |  |  | soluble in water | No significant changes or side effects were observed | considered to be insignificant | far superior to somatostatin |
